Patent US12247032B2, “Substituted pyrazolo[1,5-a]pyrimidines as inhibitors of JAK kinases” (Genentech, Inc., priority 2019, dated 2025)
Where two headings read alike, the source gives them in different places.

Legend:
[1] = biological target: T1, recombinant human JAK1 kinase domain protein (Residues 854-1154) (Homo sapiens, UniProt P23458); experiment: JAK1 biochemical assay (microfluidic mobility shift, peptide phosphorylation); conditions: 25 μM ATP, 1 nM total JAK1; Ki calculated from Ki app (tight-binding, competitive); read-out: Biochem JAK1 Ki
T1 construct: human JAK1 kinase domain protein (Residues 854-1154); purchased Proteros Biostructures GmbH (Martinsried, Germany); host or cells: insect cells
Outline: (§1)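 Insect-cell-expressed human JAK1 (1 nM, residues 854-1154) or JAK2 (0.2 nM, residues 812-1132) phosphorylating 1.5 μM 5-FAM peptide Y-1B with 25 μM ATP, pH 7.2 HEPES, 30 min at 22-23 °C; twelve concentrations up to 1000 nM in duplicate. Mobility-shift % conversion fitted to tight-binding quadratic for Ki^app.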

[2] = biological target: T2, Recombinant human JAK2 kinase domain protein (Residues 812-1132) (Homo sapiens, UniProt O60674); experiment: JAK2 biochemical assay (microfluidic mobility shift, peptide phosphorylation); conditions: 25 μM ATP, 0.2 nM total JAK2; Ki calculated from Ki app (tight-binding, competitive); read-out: Biochem JAK2 Ki
T2 construct: human JAK2 kinase domain protein (Residues 812-1132); made in house; host or cells: insect cells
Outline: as §1

[3] = tested on: JAK1 (IL-13-stimulated STAT6 phosphorylation in BEAS-2B cells); experiment: P-STAT6 BEAS-2B+IL-13 cell assay; assay type: cell-based, human; conditions: 1 hour compound, IL-13 15 minutes, IC50 by four-parameter fit, read-out: Cellular JAK1 PSTAT6 BEAS2B + IL13
Outline: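 BEAS-2B human bronchial epithelial cells preincubated 1 h at 37 °C with compound, then stimulated with human recombinant IL-13 for 15 min. Phospho-STAT6 (Tyr641) in lysates measured by MSD electrochemiluminescence immunoassay; IC50 from a four-parameter logistic fit of percent of control.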

T2 sequence (O60674 812-1132): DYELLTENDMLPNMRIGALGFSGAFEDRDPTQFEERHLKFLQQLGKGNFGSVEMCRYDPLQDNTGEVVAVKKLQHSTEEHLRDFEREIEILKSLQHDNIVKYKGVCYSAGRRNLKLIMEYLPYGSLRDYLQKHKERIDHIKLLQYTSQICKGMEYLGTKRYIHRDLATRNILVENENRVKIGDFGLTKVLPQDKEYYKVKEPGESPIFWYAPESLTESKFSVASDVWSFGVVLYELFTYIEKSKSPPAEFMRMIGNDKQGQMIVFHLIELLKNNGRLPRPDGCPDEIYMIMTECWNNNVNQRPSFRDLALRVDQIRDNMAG
T1 sequence (P23458 854-1154): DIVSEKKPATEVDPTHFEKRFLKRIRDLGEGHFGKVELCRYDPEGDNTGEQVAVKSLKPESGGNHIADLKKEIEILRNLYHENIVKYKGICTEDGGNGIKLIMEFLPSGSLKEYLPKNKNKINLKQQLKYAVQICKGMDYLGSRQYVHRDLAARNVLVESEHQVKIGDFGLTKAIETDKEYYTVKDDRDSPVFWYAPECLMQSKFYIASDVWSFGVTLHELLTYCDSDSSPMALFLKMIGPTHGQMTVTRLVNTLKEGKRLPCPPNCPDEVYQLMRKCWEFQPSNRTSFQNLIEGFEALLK

| Compound | Ki [1] [nM] | Ki [2] [nM] | IC50 ([3]; Homo sapiens, BEAS-2B, 1 h) [nM] | IC50 [3] [nM] |
| --- | --- | --- | --- | --- |
| CN(C)[C@H]1C[C@H](n2nnc(Cn3cc(NC(=O)c4cnn5cccnc45)c(-c4cc(OC(F)F)ccc4OC(F)F)n3)n2)C1 [Example 64, N-[3-[2,5-bis(difluoromethoxy)phenyl]-1-[[2-[3-(dimethylamino)cyclobutyl]tetrazol-5-yl]methyl]pyrazol-4-yl]pyrazolo[1,5-a]pyrimidine-3-carboxamide; formic acid] | 0.87 | 0.55 | 17 | – |
| O=C(Nc1cn(Cc2nnn(C3CCN(C4CCOCC4)CC3)n2)nc1-c1cc(Cl)ccc1OC(F)F)c1cnn2cccnc12 [Example 9, N-[3-[5-chloro-2-(difluoromethoxy)phenyl]-1-[[2-(1-tetrahydropyran-4-yl-4-piperidyl)tetrazol-5-yl]methyl]pyrazol-4-yl]pyrazolo[1,5-a]pyrimidine-3-carboxamide] | 0.48 | 0.24 | 13 | – |
| CN(C)C1CCC(n2nnc(Cn3cc(NC(=O)c4cnn5cccnc45)c(-c4cc(OC(F)F)ccc4OC(F)F)n3)n2)CC1 (stereo not drawn) [Example 66, N-[3-[2,5-bis(difluoromethoxy)phenyl]-1-[[2-[4-(dimethylamino)cyclohexyl]tetrazol-5-yl]methyl]pyrazol-4-yl]pyrazolo[1,5-a]pyrimidine-3-carboxamide] | 0.41 | 0.3 | 32 | – |
| CN1CCC(n2nnc(Cn3cc(NC(=O)c4cnn5cccnc45)c(-c4cc(Cl)ccc4OC(F)F)n3)n2)CC1 [Example 3, N-[3-[5-chloro-2-(difluoromethoxy)phenyl]-1-[[2-(1-methyl-4-piperidyl)tetrazol-5-yl]methyl]pyrazol-4-yl]pyrazolo[1,5-a]pyrimidine-3-carboxamide] | 0.58 | 0.43 | 14 | – |
| CN(C)C1(CCN2CC(n3nnc(Cn4cc(NC(=O)c5cnn6cccnc56)c(-c5cc(OC(F)F)ccc5OC(F)F)n4)n3)C2)CC1 [Example 80, N-[3-[2,5-bis(difluoromethoxy)phenyl]-1-[[2-[1-[2-[1-(dimethylamino)cyclopropyl]ethyl]azetidin-3-yl]tetrazol-5-yl]methyl]pyrazol-4-yl]pyrazolo[1,5-a]pyrimidine-3-carboxamide; formic acid] | 0.46 | 0.41 | 40 | – |
| CN(C)[C@H]1C[C@@H](n2nnc(Cn3cc(NC(=O)c4cnn5cccnc45)c(-c4cc(OC(F)F)ccc4OC(F)F)n3)n2)C1 [Example 63, N-[3-[2,5-bis(difluoromethoxy)phenyl]-1-[[2-[3-(dimethylamino)cyclobutyl]tetrazol-5-yl]methyl]pyrazol-4-yl]pyrazolo[1,5-a]pyrimidine-3-carboxamide] | 0.64 | 0.46 | 22 | – |
| CN1CCC[C@H]1Cn1nnc(Cn2cc(NC(=O)c3cnn4cccnc34)c(-c3cc(OC(F)F)ccc3OC(F)F)n2)n1 (stereo in doubt) [Example 53, N-[3-[2,5-bis(difluoromethoxy)phenyl]-1-[[2-[[rac-(2S)-1-methylpyrrolidin-2-yl]methyl]tetrazol-5-yl]methyl]pyrazol-4-yl]pyrazolo[1,5-a]pyrimidine-3-carboxamide] | 0.48 | 0.32 | 35 | – |
| CN(C)CCn1nnnc1Cn1cc(NC(=O)c2cnn3cccnc23)c(-c2cc3c(cc2OC(F)F)NCCO3)n1 [Example 44, N-[3-[6-(difluoromethoxy)-3,4-dihydro-2H-1,4-benzoxazin-7-yl]-1-[[1-[2-(dimethylamino)ethyl]tetrazol-5-yl]methyl]pyrazol-4-yl]pyrazolo[1,5-a]pyrimidine-3-carboxamide] | 0.71 | 0.47 | 25 | – |
| CN(C)C1CCC(N2CC(n3nnc(Cn4cc(NC(=O)c5cnn6cccnc56)c(-c5cc(OC(F)F)ccc5OC(F)F)n4)n3)C2)C1 (single isomer, unassigned) [Example 75, N-[3-[2,5-bis(difluoromethoxy)phenyl]-1-[[2-[1-[3-(dimethylamino)cyclopentyl]azetidin-3-yl]tetrazol-5-yl]methyl]pyrazol-4-yl]pyrazolo[1,5-a]pyrimidine-3-carboxamide] | 1.1 | 1.1 | – | 200 |
| NCCN1CCC(n2nnc(Cn3cc(NC(=O)c4cnn5cccnc45)c(-c4cc(OC(F)F)ccc4OC(F)F)n3)n2)CC1 [Example 25, N-[1-[[2-[1-(2-aminoethyl)-4-piperidyl]tetrazol-5-yl]methyl]-3-[2,5-bis(difluoromethoxy)phenyl]pyrazol-4-yl]pyrazolo[1,5-a]pyrimidine-3-carboxamide] | 0.77 | 0.8 | 300 | – |
| CSc1ccc(OC(F)F)c(-c2nn(Cc3nnn(C4CN(CCN(C)C)C4)n3)cc2NC(=O)c2cnn3cccnc23)c1 [Example 47, N-[3-[2-(difluoromethoxy)-5-methylsulfanyl-phenyl]-1-[[2-[1-[2-(dimethylamino)ethyl]azetidin-3-yl]tetrazol-5-yl]methyl]pyrazol-4-yl]pyrazolo[1,5-a]pyrimidine-3-carboxamide] | 0.46 | 0.32 | 16 | – |
| CN1CCC(n2nnc(Cn3cc(NC(=O)c4cnn5cccnc45)c(-c4cc(OC(F)F)ccc4OC(F)F)n3)n2)C1 (single isomer, unassigned) [Example 29, N-[3-[2,5-bis(difluoromethoxy)phenyl]-1-[[2-(1-methylpyrrolidin-3-yl)tetrazol-5-yl]methyl]pyrazol-4-yl]pyrazolo[1,5-a]pyrimidine-3-carboxamide] | 0.43 | 0.25 | 15 | – |
| CNCCN1CC(n2nnc(Cn3cc(NC(=O)c4cnn5cccnc45)c(-c4cc(OC(F)F)ccc4OC(F)F)n3)n2)C1 [Example 34, N-[3-[2,5-bis(difluoromethoxy)phenyl]-1-[[2-[1-[2-(methylamino)ethyl]azetidin-3-yl]tetrazol-5-yl]methyl]pyrazol-4-yl]pyrazolo[1,5-a]pyrimidine-3-carboxamide] | 0.4 | 0.29 | 180 | – |
| CN1CCC[C@@H]1Cn1nnc(Cn2cc(NC(=O)c3cnn4cccnc34)c(-c3cc(OC(F)F)ccc3OC(F)F)n2)n1 (stereo in doubt) [Example 49, N-[3-[2,5-bis(difluoromethoxy)phenyl]-1-[[2-[[rac-(2R)-1-methylpyrrolidin-2-yl]methyl]tetrazol-5-yl]methyl]pyrazol-4-yl]pyrazolo[1,5-a]pyrimidine-3-carboxamide] | 0.53 | 0.41 | 19 | – |
| CN(C)CCN(C)C1CC(n2nnc(Cn3cc(NC(=O)c4cnn5cccnc45)c(-c4cc(OC(F)F)ccc4OC(F)F)n3)n2)C1 (single isomer, unassigned) [Example 81, N-[3-[2,5-bis(difluoromethoxy)phenyl]-1-[[2-[3-[2-(dimethylamino)ethyl-methyl-amino]cyclobutyl]tetrazol-5-yl]methyl]pyrazol-4-yl]pyrazolo[1,5-a]pyrimidine-3-carboxamide; formic acid] | 0.52 | 0.47 | 29 | – |
| CN1CCC[C@H]1CN1CC(n2nnc(Cn3cc(NC(=O)c4cnn5cccnc45)c(-c4cc(OC(F)F)ccc4OC(F)F)n3)n2)C1 (racemic) [Example 52, N-[3-[2,5-bis(difluoromethoxy)phenyl]-1-[[2-[1-[[rac-(2R)-1-methylpyrrolidin-2-yl]methyl]azetidin-3-yl]tetrazol-5-yl]methyl]pyrazol-4-yl]pyrazolo[1,5-a]pyrimidine-3-carboxamide] | 0.38 | 0.39 | – | 19 |
| CN(C)CC(F)CN1CC(n2nnc(Cn3cc(NC(=O)c4cnn5cccnc45)c(-c4cc(OC(F)F)ccc4OC(F)F)n3)n2)C1 (single isomer, unassigned) [Example 84, N-[3-[2,5-bis(difluoromethoxy)phenyl]-1-[[2-[1-[3-(dimethylamino)-2-fluoro-propyl]azetidin-3-yl]tetrazol-5-yl]methyl]pyrazol-4-yl]pyrazolo[1,5-a]pyrimidine-3-carboxamide] | 0.55 | 0.5 | – | 20 |
| CN(C)CCCN1CC(n2nnc(Cn3cc(NC(=O)c4cnn5cccnc45)c(-c4cc(Cl)ccc4OC(F)F)n3)n2)C1 [Example 62, N-[3-[5-chloro-2-(difluoromethoxy)phenyl]1-[[2-[1-[3-(dimethylamino)propyl]azetidin-3-yl]tetrazol-5-yl]methyl]pyrazol-4-yl]pyrazolo[1,5-a]pyrimidine-3-carboxamide] | 0.66 | 0.38 | 38 | – |
| CSc1ccc(OC(F)F)c(-c2nn(Cc3nnn(CCN)n3)cc2NC(=O)c2cnn3cccnc23)c1 [Example 35, N-[1-[[2-(2-aminoethyl)tetrazol-5-yl]methyl]-3-[2-(difluoromethoxy)-5-methylsulfanyl-phenyl]pyrazol-4-yl]pyrazolo[1,5-a]pyrimidine-3-carboxamide] | 0.37 | 0.18 | 13 | – |
